Patent US20180345047A1, “METHOD OF PROMOTING HAIR GROWTH” (Yeda Research and Development Co. Ltd., priority 2015, published 2018)

What was measured:
[1] = tested on: hair-follicle stem cells in the bulge; assay: Hair-follicle bulge stem cell proliferation and number in p14ARF-expressing mice (Ki67/K15 stain, CD34/CD49f FACS); format: in vivo, K5-rtTA/tet-p14 mice; conditions: vs vehicle
Description: (§1) Mouse experiments: K5-rtTA/tet-p14, described in (Toakrsly-Amiel et al.) were held on a mixed C57B1/129sv background. Mice received doxycycline (2 mg/ml) in the drinking water at 3 weeks of age for activation of the p14ARF transgene. Sibling tet-p14 single transgene control mice received doxycycline for the same period. After four weeks of transgene activation, ABT-737 (75 mg/kg in 30% propylene glycol, 5% Tween 80, 3.3% dextrose in water pH 4-5) or vehicle was injected into p14ARF-expressing mice intraperitoneally for 2 or 4 consecutive days. Mice were then shaved, sacrificed and back skins were paraffin embedded for immunohistology or frozen in OCT solution for cryosectioning and SA-β-gal stains.
Immunohistology: Immunohistology was performed according to standard procedures on 5 μm paraffin sections, using Peroxidase Substrate kits (Vector) or fluorescently labeled secondary antibodies (Jackson). Antibodies used: p14ARF (Abcam), CC3 (Cell Signaling), Ki67 (Labvision) and K15 (Santa Cruz). For Senescence-associated β-Galactosidase (SA-β-gal) stains, 10-12 μm cryosections of OCT-embedded mouse skins were fixed in 0.5% glutaraldehyde for 15 minutes, stained over night at 37° C. with 40 mM phosphate buffer pH=6 with 5 mM K4Fe(CN)6, 5 mM K3Fe(CN)6, 150 mM NaCl, 2 mM MgCl2 and 1 mg/ml X-gal, washed in PBS, fixed in 95% ethanol for 15 minutes, counterstained with nuclear fast red, dehydrated and mounted. Bright field images were collected using an Olympus CX41 and DS-Fi1 camera and processed using NIS Elements software (Nikon). Fluorescent images were taken using an Olympus FV1000 confocal microscope. Positive cells were scored from >10 microscopic fields in each sample either by direct microscopic observation (SA-β-gal, p14) or on collected images (all other stains).
Upon p14^ARF activation in mice at 3 weeks of age nearly all hair follicles are arrested in the resting (telogen) state, and only rare stem cells in the bulge express the proliferation marker Ki67^36 (FIGS. 5H-I). […] This effect was also evident three days after treatment was stopped (FIGS. 2A-B). […]

[2] = tested on: senescent epidermal cells; assay: Elimination of senescent cells in the skin epidermis of p14ARF-expressing mice (SA-β-Gal, p14ARF, cleaved caspase-3 stains); format: in vivo, K5-rtTA/tet-p14 mice; conditions: 75 mg/kg intraperitoneally
Description: as §1
Immunohistology: Immunohistology was performed according to standard procedures on 5 μm paraffin sections, using Peroxidase Substrate kits (Vector) or fluorescently labeled secondary antibodies (Jackson). Antibodies used: p14ARF (Abcam), CC3 (Cell Signaling), Ki67 (Labvision) and K15 (Santa Cruz). […] Positive cells were scored from >10 microscopic fields in each sample either by direct microscopic observation (SA-β-gal, p14) or on collected images (all other stains).
The present inventors set out to test whether the survival signals provided by Bcl-2 family members are necessary for the survival and retention of senescent cells in tissues. […] Concomitantly, the percentage of epidermal cells in which the transgenic p14^ARF protein could be detected was reduced (FIGS. 1D-E), indicating preferred elimination of transgene-expressing cells. Increased levels of apoptosis were detected in the epidermis after 2 days of ABT-737 treatment (FIGS. 1F-G), consistent with increased apoptosis as the mechanism of senescent cell elimination. […]

CN(C)CC[C@H](CSc1ccccc1)Nc1ccc(S(=O)(=O)NC(=O)c2ccc(N3CCN(Cc4ccccc4-c4ccc(Cl)cc4)CC3)cc2)cc1[N+](=O)[O-] [ABT-737]
number of CD34+/CD49f high bulge stem cells ([1]; FACS of epidermal cells after 2 days of treatment): increased
increase in proliferating (Ki67+) hair-follicle stem cells in the bulge after end of treatment ([1]; treated 2 days, three days after treatment was stopped): also evident
numbers of proliferating (Ki67+) hair-follicle stem cells in the bulge ([1]; treatment after 2-4 weeks of p14ARF induction, 75 mg/kg intraperitoneally): increase
number of senescent cells in the epidermis, determined by SA-β-Gal staining ([2]; 4 consecutive days, after 4 weeks p14ARF activation, relative to vehicle-treated mice): dramatically reduced
percentage of epidermal cells in which the transgenic p14ARF protein could be detected ([2]; 2 day treatment, vs vehicle): reduced
levels of apoptosis in the epidermis (cleaved caspase-3) ([2]; after 2 days of treatment, vs vehicle): Increased
